Test results: paper PMC4589371, “Molecular Binding Mechanism of TtgR Repressor to Antibiotics and Antimicrobials” (PLoS ONE, 2015)

Assays:
[1] = system: TtgR E78A (Pseudomonas putida DOT-T1E); assay: EMSA; conditions: 5 uM naringenin; EMSA: 10 mM Tris-HCl pH 7.0, 250 mM NaCl, 10 mM Mg acetate, 10 mM KCl, 5% glycerol, 0.1 mM EDTA, 5 mM DTT, 20 ug/ml poly(dI-dC), 200 ug/ml BSA; 10 min at 30 C …
[2] = system: TtgR H114A (Pseudomonas putida DOT-T1E); assay: EMSA; conditions: 5 uM naringenin; EMSA: 10 mM Tris-HCl pH 7.0, 250 mM NaCl, 10 mM Mg acetate, 10 mM KCl, 5% glycerol, 0.1 mM EDTA, 5 mM DTT, 20 ug/ml poly(dI-dC), 200 ug/ml BSA; 10 min at 30 C …
[3] = system: TtgR N110A (Pseudomonas putida DOT-T1E); assay: EMSA; conditions: 5 uM phloretin; EMSA: 10 mM Tris-HCl pH 7.0, 250 mM NaCl, 10 mM Mg acetate, 10 mM KCl, 5% glycerol, 0.1 mM EDTA, 5 mM DTT, 20 ug/ml poly(dI-dC), 200 ug/ml BSA; 10 min at 30 C …
TtgR (TtgR^WT) [4] = target: TtgR (TtgR^WT) (Pseudomonas putida, UniProt Q9AIU0, E78A); assay: biochemical
From the text: (§1) isothermal titration calorimetry, one set of sites on TtgR (TtgR^WT)

TtgR (TtgR^WT) [5] = target: TtgR (TtgR^WT) (Pseudomonas putida, UniProt Q9AIU0, H114A); assay: biochemical
From the text: as §1

TtgR (TtgR^WT) [6] = target: TtgR (TtgR^WT) (Pseudomonas putida, UniProt Q9AIU0, N110A); assay: biochemical
From the text: as §1

TtgR (TtgR^WT) [7] = target: T1, TtgR (TtgR^WT) (Pseudomonas putida, UniProt Q9AIU0); assay: isothermal titration calorimetry, one set of sites; assay type: binding
T1 construct: homodimer

Row | Compound | binding signal (% DNA released) [1] | binding signal (% DNA released) [2] | binding signal (% DNA dissociated) [3] | Kd (TtgR (TtgR^WT) [4]) [µM] | Kd (TtgR (TtgR^WT) [5]) [µM] | Kd (TtgR (TtgR^WT) [6]) [µM] | Kd (TtgR (TtgR^WT) [7]) [µM]
1 | ttgABC-ttgR intergenic region (operator), 189 bp | 30 | 30 | 66 | – | – | – | –
2 | O=C(CCc1ccc(O)cc1)c1c(O)cc(O)cc1O [phloretin] | – | – | – | 0.7 ± 0.1 | 1.3 ± 0.1 | 1 ± 0.1 | 1.5 ± 0.2
3 | O=C(N[C@H](CO)[C@H](O)c1ccc([N+](=O)[O-])cc1)C(Cl)Cl [chloramphenicol] | – | – | – | 18.5 ± 1 | 8.5 ± 0.5 | 15.6 ± 2 | 5.6 ± 0.4
